Data from patent publication US12077503B2, “Substituted cyclic amides and their use as herbicides” (FMC CORPORATION, priority 2015, dated 2024).
Read-outs that look alike come from different tables or passages of the source.

Tests used:
Assay type in all cases: in vivo
[1] = test system: barnyardgrass (Echinochloa crus-galli); experiment: Test A preemergence; settings: Echinochloa crus-galli, pre-emergence, 240 h; for pest or weed control at 125 g/ha: 125 g ai/ha, 0 to 100 scale where 0 is no effect and 100 is complete control; for pest or weed control at 500 g/ha: 500 g ai/ha
Outline: (§1)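 Greenhouse, ~10 d after spray; visual injury vs untreated controls, 0 = no effect, 100 = complete control. Preemergence: directed soil spray over planted seeds. Postemergence: plants 2–10 cm, 1–2 leaf stage. Loam/sand blend. Compound in non-phytotoxic solvent with surfactant.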

[2] = test system: sedge, umbrella (small-flower umbrella sedge, Cyperus difformis); experiment: Test B flooded paddy test; settings: Cyperus difformis, 250 g ai/ha, Flood, read-out: Sedge, Umbrella plant response rating
Outline: (§2)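 Flooding to 3 cm over soil accompanied treatment, which consisted of adding compound to the standing water around 2-leaf plants; depth was then maintained. Visual assessment versus controls followed at 13 to 15 d (scale 0–100, 0 meaning no effect).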

[3] = test system: barnyardgrass (Echinochloa crus-galli); experiment: Test B flooded paddy test; settings: Echinochloa crus-galli, 250 g ai/ha, Flood, read-out: Barnyardgrass plant response rating
Outline: as §2

[4] = test system: ducksalad (Heteranthera limosa); experiment: Test B flooded paddy test; settings: Heteranthera limosa, 250 g ai/ha, Flood, read-out: Ducksalad plant response rating
Outline: as §2

rice (Oryra sativa) = experiment: Test B flooded paddy test; settings: Oryza sativa, 250 g ai/ha, Flood, read-out: Rice plant response rating
Outline: as §2

[5] = test system: ryegrass, Italian (Italian ryegrass, Lolium multiflorum); experiment: Test A postemergence; settings: Lolium multiflorum, post-emergence, 240 h, postemergence; for pest or weed control at 125 g/ha: 125 g ai/ha
Outline: as §1

[6] = test system: wheat (Triticum aestivum); experiment: Test A postemergence; settings: Triticum aestivum, post-emergence, 240 h, postemergence; for plant injury at 125 g/ha: 125 g ai/ha
Outline: as §1

[7] = test system: barnyardgrass (Echinochloa crus-galli); experiment: Test A postemergence; settings: Echinochloa crus-galli, post-emergence, 240 h, postemergence; for pest or weed control at 125 g/ha: 125 g ai/ha
Outline: as §1

[8] = test system: pigweed (Amaranthus retroflexus); experiment: Test A postemergence; settings: Amaranthus retroflexus, post-emergence, 240 h, postemergence; for pest or weed control at 125 g/ha: 125 g ai/ha
Outline: as §1

[9] = test system: Galium (catchweed bedstraw, Galium aparine); experiment: Test A postemergence; settings: Galium, post-emergence, 240 h, postemergence; for pest or weed control at 125 g/ha: 125 g ai/ha
Outline: as §1

corn (Zea mays) = experiment: Test A postemergence; settings: Zea mays, post-emergence, 240 h, postemergence; for plant injury at 125 g/ha: 125 g ai/ha
Outline: as §1

[10] = test system: ragweed (common ragweed, Ambrosia elatior); experiment: Test A postemergence; settings: Ambrosia artemisiifolia, post-emergence, 240 h, postemergence; for pest or weed control at 125 g/ha: 125 g ai/ha
Outline: as §1

[11] = test system: blackgrass (Alopecurus myosuroides); experiment: Test A postemergence; settings: Alopecurus myosuroides, post-emergence, 240 h, postemergence; for pest or weed control at 125 g/ha: 125 g ai/ha
Outline: as §1

Kochia (Kochia scoparia) = experiment: Test A postemergence; settings: Bassia scoparia, post-emergence, 240 h, postemergence; for pest or weed control at 125 g/ha: 125 g ai/ha
Outline: as §1

[12] = test system: giant foxtail (Setaria faberii); experiment: Test A postemergence; settings: Setaria faberi, post-emergence, 240 h, postemergence; for pest or weed control at 125 g/ha: 125 g ai/ha
Outline: as §1

[13] = 0 to 100 scale where 0 is no effect and 100 is complete control
[14] = preemergence, read-out: Barnyardgrass plant response rating
[15] = Preemergence, visual injury vs untreated controls after approximately 10 d, read-out: Barnyardgrass plant response rating (0 to 100 scale where 0 is no effect and 100 is complete control)
[16] = scale of 0 to 100 where 0 is no effect and 100 is complete control
[17] = visual injury rating after approximately 10 d, read-out: Ryegrass, Italian plant response rating (0 to 100 scale, 0 no effect, 100 complete control)
[18] = visual injury rating after approximately 10 d, read-out: Wheat plant response rating (0 to 100 scale, 0 no effect, 100 complete control)
[19] = visual injury rating after approximately 10 d, read-out: Barnyardgrass plant response rating (0 to 100 scale, 0 no effect, 100 complete control)
[20] = visual injury rating after approximately 10 d, read-out: Pigweed plant response rating (0 to 100 scale, 0 no effect, 100 complete control)
[21] = visual injury rating after approximately 10 d, read-out: Galium plant response rating (0 to 100 scale, 0 no effect, 100 complete control)
[22] = visual injury rating after approximately 10 d, read-out: Corn plant response rating (0 to 100 scale, 0 no effect, 100 complete control)
[23] = visual injury rating after approximately 10 d, read-out: Ragweed plant response rating (0 to 100 scale, 0 no effect, 100 complete control)
[24] = visual injury rating after approximately 10 d, read-out: Blackgrass plant response rating (0 to 100 scale, 0 no effect, 100 complete control)
[25] = visual injury rating after approximately 10 d, read-out: Kochia plant response rating (0 to 100 scale, 0 no effect, 100 complete control)
[26] = visual injury rating after approximately 10 d, read-out: Foxtail, Giant plant response rating (0 to 100 scale, 0 no effect, 100 complete control)

Question: Which pest or weed control at 125 g/ha ([1]; preemergence, approx. 10 d, read-out: Barnyardgrass plant response rating) does the source give for Cc1cc([C@H]2CN(C)C(=O)[C@@H]2C(=O)Nc2ccccc2F)ccc1Br [Compound 1098] here?
Answer: 90%

Question: What about the pest or weed control at 500 g/ha ([1]; preemergence, visual injury rating about 10 d after treatment, 0 to 100 scale (0 no effect, 100 complete control), read-out: Barnyardgrass plant response rating) of the same molecule?
Answer: 90%

Question: What about the pest or weed control at 250 g/ha [2, 13] of the same molecule?
Answer: 0%

Question: And the pest or weed control at 250 g/ha [3, 13]?
Answer: 0%

Question: And the pest or weed control at 250 g/ha [4, 13]?
Answer: 90%

Question: What about the pest or weed control at 250 g/ha (rice (Oryra sativa); [13]) of the same molecule?
Answer: 0%

Question: What about the pest or weed control at 125 g/ha ([5]; visual injury on 0 to 100 scale (0 no effect, 100 complete control), approx. 10 d, read-out: Ryegrass, Italian plant response rating) of the same molecule?
Answer: 40%

Question: What about the pest or weed control at 500 g/ha ([5]; 500 g ai/ha, 0 to 100 scale, 0 is no effect, 100 is complete control, read-out: Ryegrass, Italian plant response rating) of the same molecule?
Answer: 50%

Question: What about the plant injury at 125 g/ha ([6]; visual injury on 0 to 100 scale (0 no effect, 100 complete control), approx. 10 d, read-out: Wheat plant response rating) of the same molecule?
Answer: 0%

Question: What about the plant injury at 500 g/ha ([6]; 500 g ai/ha, 0 to 100 scale, 0 is no effect, 100 is complete control, read-out: Wheat plant response rating) of the same molecule?
Answer: 50%

Question: And the pest or weed control at 125 g/ha ([7]; visual injury on 0 to 100 scale (0 no effect, 100 complete control), approx. 10 d, read-out: Barnyardgrass plant response rating)?
Answer: 80%

Question: And the pest or weed control at 500 g/ha ([7]; 500 g ai/ha, 0 to 100 scale, 0 is no effect, 100 is complete control, read-out: Barnyardgrass plant response rating)?
Answer: 90%

Question: What about the pest or weed control at 125 g/ha ([8]; visual injury on 0 to 100 scale (0 no effect, 100 complete control), approx. 10 d, read-out: Pigweed plant response rating) of the same molecule?
Answer: 0%

Question: And the pest or weed control at 500 g/ha ([8]; 500 g ai/ha, 0 to 100 scale, 0 is no effect, 100 is complete control, read-out: Pigweed plant response rating)?
Answer: 0%

Question: And the pest or weed control at 125 g/ha ([9]; visual injury on 0 to 100 scale (0 no effect, 100 complete control), approx. 10 d, read-out: Galium plant response rating)?
Answer: 30%

Question: What about the pest or weed control at 500 g/ha ([9]; 500 g ai/ha, 0 to 100 scale, 0 is no effect, 100 is complete control, read-out: Galium plant response rating) of the same molecule?
Answer: 40%

Question: What about the plant injury at 125 g/ha (corn (Zea mays); visual injury on 0 to 100 scale (0 no effect, 100 complete control), approx. 10 d, read-out: Corn plant response rating) of the same molecule?
Answer: 0%

Question: What about the plant injury at 500 g/ha (corn (Zea mays); 500 g ai/ha, 0 to 100 scale, 0 is no effect, 100 is complete control, read-out: Corn plant response rating) of the same molecule?
Answer: 70%

Question: And the pest or weed control at 125 g/ha ([10]; visual injury on 0 to 100 scale (0 no effect, 100 complete control), approx. 10 d, read-out: Ragweed plant response rating)?
Answer: 0%

Question: What about the pest or weed control at 500 g/ha ([10]; 500 g ai/ha, 0 to 100 scale, 0 is no effect, 100 is complete control, read-out: Ragweed plant response rating) of the same molecule?
Answer: 0%

Question: And the pest or weed control at 125 g/ha ([11]; visual injury on 0 to 100 scale (0 no effect, 100 complete control), approx. 10 d, read-out: Blackgrass plant response rating)?
Answer: 20%

Question: And the pest or weed control at 500 g/ha ([11]; 500 g ai/ha, 0 to 100 scale, 0 is no effect, 100 is complete control, read-out: Blackgrass plant response rating)?
Answer: 30%

Question: And the pest or weed control at 125 g/ha (Kochia (Kochia scoparia); visual injury on 0 to 100 scale (0 no effect, 100 complete control), approx. 10 d, read-out: Kochia plant response rating)?
Answer: 20%

Question: And the pest or weed control at 500 g/ha (Kochia (Kochia scoparia); 500 g ai/ha, 0 to 100 scale, 0 is no effect, 100 is complete control, read-out: Kochia plant response rating)?
Answer: 60%

Question: And the pest or weed control at 125 g/ha ([12]; visual injury on 0 to 100 scale (0 no effect, 100 complete control), approx. 10 d, read-out: Foxtail, Giant plant response rating)?
Answer: 80%

Question: What about the pest or weed control at 500 g/ha ([12]; 500 g ai/ha, 0 to 100 scale, 0 is no effect, 100 is complete control, read-out: Foxtail, Giant plant response rating) of the same molecule?
Answer: 90%

Question: For Cc1cc(F)cc([C@H]2CN(C)C(=O)[C@@H]2C(=O)Nc2cccc(F)c2F)c1 [Compound 849], which pest or weed control at 125 g/ha [1, 14] is on record?
Answer: 90%

Question: What about the pest or weed control at 500 g/ha [1, 15] of the same molecule?
Answer: 90%

Question: What about the pest or weed control at 250 g/ha [2, 16] of the same molecule?
Answer: 0%

Question: And the pest or weed control at 250 g/ha [3, 16]?
Answer: 75%

Question: And the pest or weed control at 250 g/ha [4, 16]?
Answer: 100%

Question: And the pest or weed control at 250 g/ha (rice (Oryra sativa); [16])?
Answer: 15%

Question: What about the pest or weed control at 125 g/ha [5, 17] of the same molecule?
Answer: 0%

Question: And the plant injury at 125 g/ha [6, 18]?
Answer: 30%

Question: And the pest or weed control at 125 g/ha [7, 19]?
Answer: 90%

Question: What about the pest or weed control at 125 g/ha [8, 20] of the same molecule?
Answer: 0%

Question: What about the pest or weed control at 125 g/ha [9, 21] of the same molecule?
Answer: 60%

Question: What about the plant injury at 125 g/ha (corn (Zea mays); [22]) of the same molecule?
Answer: 70%

Question: What about the pest or weed control at 125 g/ha [10, 23] of the same molecule?
Answer: 0%

Question: And the pest or weed control at 125 g/ha [11, 24]?
Answer: 30%

Question: What about the pest or weed control at 125 g/ha (Kochia (Kochia scoparia); [25]) of the same molecule?
Answer: 0%

Question: What about the pest or weed control at 125 g/ha [12, 26] of the same molecule?
Answer: 90%

Question: CSc1ccccc1NC(=O)[C@H]1C(=O)NC[C@@H]1c1cccc2c1OC(F)(F)O2 [Compound 865] was tested. Which pest or weed control at 125 g/ha [1, 14] did it give?
Answer: 0%

Question: And the pest or weed control at 500 g/ha [1, 15]?
Answer: 70%

Question: What about the pest or weed control at 250 g/ha [2, 16] of the same molecule?
Answer: 30%

Question: What about the pest or weed control at 250 g/ha [3, 16] of the same molecule?
Answer: 0%

Question: And the pest or weed control at 250 g/ha [4, 16]?
Answer: 60%

Question: And the pest or weed control at 250 g/ha (rice (Oryra sativa); [16])?
Answer: 30%

Question: And the pest or weed control at 125 g/ha [5, 17]?
Answer: 0%

Question: And the plant injury at 125 g/ha [6, 18]?
Answer: 0%

Question: And the pest or weed control at 125 g/ha [7, 19]?
Answer: 0%

Question: And the pest or weed control at 125 g/ha [8, 20]?
Answer: 0%

Question: What about the pest or weed control at 125 g/ha [9, 21] of the same molecule?
Answer: 0%

Question: And the plant injury at 125 g/ha (corn (Zea mays); [22])?
Answer: 0%

Question: And the pest or weed control at 125 g/ha [10, 23]?
Answer: 0%

Question: What about the pest or weed control at 125 g/ha [11, 24] of the same molecule?
Answer: 0%

Question: And the pest or weed control at 125 g/ha (Kochia (Kochia scoparia); [25])?
Answer: 0%

Question: What about the pest or weed control at 125 g/ha [12, 26] of the same molecule?
Answer: 0%
